The compounds below were run against Human Factor D (Homo sapiens (Human), UniProt P00746) (assay: Human Factor D Assay). Conditions: Human Factor D 80 nM, substrate Z-L-Lys-SBzl; read-out: IC50.
Human Factor D, sequence (P00746 26-253): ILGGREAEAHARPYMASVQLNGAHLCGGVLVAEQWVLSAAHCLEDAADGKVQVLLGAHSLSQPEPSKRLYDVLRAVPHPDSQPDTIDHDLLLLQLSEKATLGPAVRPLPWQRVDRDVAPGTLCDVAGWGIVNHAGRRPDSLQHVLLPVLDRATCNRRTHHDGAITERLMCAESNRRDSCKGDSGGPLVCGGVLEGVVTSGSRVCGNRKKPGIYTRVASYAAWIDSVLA
Format: biochemical
How it was run: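 First, compound at various concentrations is mixed with 80 nM (final) human serum Factor D in 50 mM Tris, 1M NaCl, pH 7.5 for 5 min at room temperature.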
`NC(=O)c1nn(CC(=O)N2C[C@H](F)C[C@H]2C(=O)NCc2ccncc2)c2ccc(-c3ccnnc3)cc12` [Compound 157, 1-(2-((2S,4R)-4-fluoro-2-(pyridin-4-ylmethylcarbamoyl)pyrrolidin-1-yl)-2-oxoethyl)-5-(pyridazin-4-yl)-1H-indazole-3-carboxamide] was tested, and the IC50 was > 10 µM.
`CC(=O)c1cn(CC(=O)N2C[C@H](F)C[C@H]2C(=O)Nc2nnc(-c3ccc(Cl)c(Cl)c3)s2)c2ccc(-c3ccnnc3)cc12` [Compound 117, (2S,4R)-1-(2-(3-acetyl-5-(pyridazin-4-yl)-1H-indol-1-yl)acetyl)-N-(5-(3,4-dichlorophenyl)-1,3,4-thiadiazol-2-yl)-4-fluoropyrrolidine-2-carboxamide] was tested, and the IC50 was > 10 µM.
In the case of `CC(=O)c1cn(CC(=O)N2[C@@H]3C[C@@H]3C[C@H]2C(=O)NCc2cccc(Cl)c2F)c2ccc(-c3cnc(C)nc3)cc12` [Compound 134, (1R,3S,5R)-2-(2-(3-acetyl-5-(2-methylpyrimidin-5-yl)-1H-indol-1-yl)acetyl)-N-(3-chloro-2-fluorobenzyl)-2-azabicyclo[3.1.0] hexane-3-carboxamide], the IC50 is reported as < 1 µM.

Same assay, conditions: Human Factor D assay of Example 8; Table 2; read-out: IC50
In the case of `CC(=O)c1nn(CC(=O)N2C[C@H](F)C[C@H]2C(=O)Nc2cccc(C#N)n2)c2ccc(-c3cnc4cc(C)nn4c3)cc12` [Compound 265, (2S,4R)-1-(2-(3-acetyl-5-(2-methylpyrazolo[1,5-a]pyrimidin-6-yl)-1H-indazol-1-yl)acetyl)-N-(6-cyanopyridin-2-yl)-4-fluoropyrrolidine-2-carboxamide], the IC50 is reported as < 1 µM.
For `CC(=O)n1cc(NC(=O)N2C[C@H](F)C[C@H]2C(=O)Nc2cccc(Br)n2)c2ccc(-c3cnc(C)nc3)cc21` [Compound 292, (2S,4R)-N1-(1-acetyl-6-(2-methylpyrimidin-5-yl)-1H-indol-3-yl)-N2-(6-bromopyridin-2-yl)-4-fluoropyrrolidine-1,2-dicarboxamide], the IC50 was < 1 µM.

Same assay, conditions: Human Factor D, Table 3; read-out: IC50
In the case of `CC(=O)c1nn(CC(=O)N2C[C@H](F)C[C@H]2C(=O)Nc2cccc(Br)n2)c2cc(C)c(-c3cnc(C)nc3)cc12` [Compound 609, (2S,4R)-1-(2-(3-Acetyl-6-methyl-5-(2-methylpyrimidin-5-yl)-1H-indazol-1-yl)acetyl)-N-(6-bromopyridin-2-yl)-4-fluoropyrrolidine-2-carboxamide], the IC50 is reported as < 1 µM.
With `CC(=O)c1nn(CC(=O)N2[C@H](C(=O)Nc3nc(Br)ccc3C)C[C@@]3(C)C[C@@H]23)c2ccc(-c3cnc(N)nc3)cc12` [Compound 620, (1R,3S,5R)-2-(2-(3-Acetyl-5-(2-aminopyrimidin-5-yl)-1H-indazol-1-yl)acetyl)-N-(6-bromo-3-methylpyridin-2-yl)-5-methyl-2-azabicyclo[3.1.0]hexane-3-carboxamide] the IC50 was < 1 µM.
For `CC(=O)c1nn(CC(=O)N2C[C@H](F)C[C@H]2C(=O)Nc2cccc(Br)n2)c2ccc(-c3cnn(C4CC4)c3)cc12` [Compound 706, (2S,4R)-1-(2-(3-Acetyl-5-(1-cyclopropyl-1H-pyrazol-4-yl)-1H-indazol-1-yl)acetyl)-N-(6-bromopyridin-2-yl)-4-fluoropyrrolidine-2-carboxamide], the IC50 was < 1 µM.
With `COc1ncc(-c2ccc3c(c2)c(C(C)=O)nn3CC(=O)N2C[C@H]3C[C@H]3[C@H]2C(=O)Nc2nc(Br)ccc2C2CC2)cn1` [Compound 641, (1R,2S,5S)-3-(2-(3-Acetyl-5-(2-methoxypyrimidin-5-yl)-1H-indazol-1-yl)acetyl)-N-(6-bromo-3-cyclopropylpyridin-2-yl)-3-azabicyclo[3.1.0]hexane-2-carboxamide] the IC50 was < 1 µM.
In the case of `CC(=O)c1nn(CC(=O)N2C[C@H](F)C[C@H]2C(=O)Nc2cccc(C(C)C)n2)c2ccc(-c3cnc4cc(C)nn4c3)cc12` [Compound 680, (2S,4R)-1-(2-(3-acetyl-5-(2-methylpyrazolo[1.5-a]pyrimidin-6-yl)-1H-indazol-1-yl)acetyl)-4-fluoro-N-(6-isopropylpyridin-2-yl)pyrrolidine-2-carboxamide], the IC50 is reported as < 1 µM.
`CC(=O)c1nn(CC(=O)N2C[C@H](F)C[C@H]2C(=O)Nc2cccc(Br)n2)c2ccc(-c3cnn(-c4ncccn4)c3)cc12` [Compound 696, (2S,4R)-1-(2-(3-Acetyl-5-(1-(pyrimidin-2-yl)-1H-pyrazol-4-yl)-1H-indazol-1-yl)acetyl)-N-(6-bromopyridin-2-yl)-4-fluoropyrrolidine-2-carboxamide] was tested, and the IC50 was < 1 µM.
With `CC(=O)c1nn(CC(=O)N2C[C@H](F)C[C@H]2C(=O)Nc2cccc(-c3ncco3)n2)c2ccc(-c3cnc(C)nc3)cc12` [Compound 600, (2S,4R)-1-(2-(3-Acetyl-5-(2-methylpyrimidin-5-yl)-1H-indazol-1-yl)acetyl)-4-fluoro-N-(6-(oxazol-2-yl)pyridin-2-yl)pyrrolidine-2-carboxamide] the IC50 was < 1 µM.
In the case of `CC(=O)c1nn(CC(=O)N2C[C@H](F)C[C@H]2C(=O)Nc2cccc(OC(F)(F)F)n2)c2ccc(-c3cnc4ccnn4c3)cc12` [Compound 668, (2S,4R)-1-(2-(3-Acetyl-5-(pyrazolo[1,5-a]pyrimidin-6-yl)-1H-indazol-1-yl)acetyl)-4-fluoro-N-(6-(trifluoromethoxy)pyridin-2-yl)pyrrolidine-2-carboxamide], the IC50 is reported as < 1 µM.

Same assay, conditions: Table 3; Human Factor D 80 nM, substrate Z-L-Lys-SBzl; read-out: IC50 (Stars)
With `CC(=O)c1nn(CC(=O)N2C[C@H](F)C[C@H]2C(=O)Nc2nc(Br)ccc2C2CC2)c2ccc(-c3cnc(C)nc3)cc12` [Compound 538, (2S,4R)-1-(2-(3-Acetyl-5-(2-methylpyrimidin-5-yl)-1H-indazol-1-yl)acetyl)-N-(6-bromo-3-cyclopropylpyridin-2-yl)-4-fluoropyrrolidine-2-carboxamide] the IC50 was < 1 µM.
`CC(=O)c1nn(CC(=O)N2[C@@H](C)CC[C@H]2C(=O)Nc2cccc(Br)n2)c2ccc(-c3cnc(C)nc3)cc12` [Compound 530, (2S,5S)-1-(2-(3-Acetyl-5-(2-methylpyrimidin-5-yl)-1H-indazol-1-yl)acetyl)-N-(6-bromopyridin-2-yl)-5-methylpyrrolidine-2-carboxamide] was tested, and the IC50 was < 1 µM.
With `CCc1ccc(Br)nc1NC(=O)[C@@H]1C[C@@H](F)CN1C(=O)Cn1nc(C(C)=O)c2cc(-c3cnc(C)nc3)ccc21` [Compound 534, (2S,4R)-1-(2-(3-Acetyl-5-(2-methylpyrimidin-5-yl)-1H-indazol-1-yl)acetyl)-N-(6-bromo-3-ethylpyridin-2-yl)-4-fluoropyrrolidine-2-carboxamide] the IC50 was < 1 µM.
With `CC(=O)c1nn(CC(=O)N2[C@@H]3C[C@@H]3C[C@H]2C(=O)Nc2ccc(F)c(Br)n2)c2ccc(-c3cnc(N)nc3)cc12` [Compound 458, (1R,3S,5R)-2-(2-(3-Acetyl-5-(2-aminopyrimidin-5-yl)-1H-indazol-1-yl)acetyl)-N-(6-bromo-5-fluoropyridin-2-yl)-2-azabicyclo[3.1.0]hexane-3-carboxamide] the IC50 was < 1 µM.
`CCc1ncc(-c2ccc3c(c2)c(C(C)=O)nn3CC(=O)N2C[C@H](F)C[C@H]2C(=O)Nc2cncc(Br)n2)cn1` [Compound 388, (2S,4R)-1-(2-(3-Acetyl-5-(2-ethylpyrimidin-5-yl)-1H-indazol-1-yl)acetyl)-N-(6-bromopyrazin-2-yl)-4-fluoropyrrolidine-2-carboxamide] was tested, and the IC50 was < 1 µM.
In the case of `CC(=O)c1nn(CC(=O)N2C[C@H](F)C[C@H]2C(=O)Nc2cncc(Br)n2)c2ccc(-c3cnc(N)nc3)cc12` [Compound 353, (2S,4R)-1-(2-(3-Acetyl-5-(2-aminopyrimidin-5-yl)-1H-indazol-1-yl)acetyl)-N-(6-bromopyrazin-2-yl)-4-fluoropyrrolidine-2-carboxamide], the IC50 is reported as < 1 µM.
